Data as given in patent US4952572A (priority 1989, dated 1990).

Tests used:
Cryptococcus neoformans = assay: In vitro antifungal activity, summary; format: cell-based; conditions: relative to BU-3420T acetate
Moser cells = assay: In vitro cytotoxicity, neutral red; format: cell-based, human
Solubility = format: physicochemical
[1] = tested on: Gram-positive aerobic bacteria; format: cell-based; conditions: in words
Gram-negative organisms = format: cell-based; conditions: in words; relative to Gram-positive aerobic bacteria
[2] = tested on: Staphylococcus aureus Smith; assay: In vivo activity against S. aureus Smith infection (ip) in mice; conditions: im, single
Experimental: Mice were challenged intraperitoneally with 100 times the lethal dose of the pathogen in a 5% suspension of hog gastric mucin (American Laboratory, Omaha, Neb.). BU-3420T was administered to mice intramuscularly just before the bacterial challenge.

[3] = Acute toxicity in mice, intramuscular; format: in vivo; conditions: 5 mg/kg
P388/VCR cells = assay: In vitro cytotoxicity, viable cell count; conditions: in words
Experimental: (§1) On the other hand, the cytotoxic activities against P388 and P388/VCR cells were determined by counting the number of viable cells.

[4] = tested on: murine and human tumor cell lines; assay: In vitro cytotoxicity, summary; conditions: in words
Experimental: as §1

For `C[C@@H]1[C@H](O)[C@@H](C)/C=C/C=C/C=C/C=C/C=C/C=C/C=C/[C@H](O[C@@H]2O[C@H](C)[C@@H](O)[C@H](N)[C@@H]2O)C[C@@H]2O[C@](O)(C[C@@H](O)C[C@@H](O)[C@H](O)CC[C@@H](O)C[C@@H](O)CC(=O)O[C@H]1C)C[C@H](O)[C@H]2C(=O)O` [Amphotericin B], the “susceptibility of Cryptococcus neoformans” value (Cryptococcus neoformans) was “more susceptible to amphotericin B”.

For `COC1=C(C(=O)O)C(C)C23OC24c2cc(OC(C)=O)c5c(c2NC3C#C/C=C\C#CC14)C(=O)c1c(OC(C)=O)ccc(OC(C)=O)c1C5=O` (stereo not shown) [BU-3420T acetate], the IC50 (Moser cells; Homo sapiens, Moser, 72 hours) was 0.003 ng/mL, the solubility (Solubility; in organic solvents such as chloroform, methanol and ethanol, relative to BU-3420T) was “much improved solubility” and the antibacterial activity [1] was “intensely potent activity”. For the same compound, the “susceptibility of Gram-negative organisms” value (Gram-negative organisms) was “a little less susceptible”.

For `COC1=C(C(=O)O)C(C)C23OC24c2cc(O)c5c(c2NC3C#C/C=C\C#CC14)C(=O)c1c(O)ccc(O)c1C5=O` (stereo not shown) [BU-3420T], the No. of survivor/tested ([2]; 0.01 mg/kg) was 0/5, the No. of survivor/tested ([2]; 0.04 mg/kg) was 0/5 and the toxicity [3] was “did not show any toxicity”. The “cytotoxicity against VCR-sensitive vs resistant P388 cells” value (P388/VCR cells) was “same cytotoxicities”, the solubility (Solubility; in chloroform, ethyl acetate, methanol and ethanol) was “slightly soluble” and the solubility (Solubility; in dimethyl sulfoxide, dimethylformamide and dioxane) was “soluble”. For the same compound, the solubility (Solubility; in water and n-hexane) was “insoluble”, the antibacterial activity [1] was “intensely potent activity” and the “susceptibility of Gram-negative organisms” value (Gram-negative organisms) was “a little less susceptible”. The cytotoxicity [4] was “potent cytotoxicity”.

With `CO[C@@]12[C@H](COC(N)=O)C3=C(C(=O)C(C)=C(N)C3=O)N1C[C@@H]1N[C@@H]12` [Mitomycin C] the “resistance of Moser and HCT-116 relative to B16-F10” value (Moser cells; Moser and HCT-116 cells vs B16-F10) was “slightly more resistant”.
